Results published in patent US20210246115A1 (Bioimics AB, priority 2017, published 2021).
Counter-ions that a name gives are not always drawn. Like-named read-outs stand apart in the source and are kept apart here.

Columns and labels:
H. influenzae ATCC 49247 = test: MIC, H. influenzae ATCC 49247; type: cell-based; conditions: Haemophilus influenzae, ATCC49247; Table XIV B. Gram-negative bacteria
S. pneumoniae ATCC 49619 = test: MIC, S. pneumoniae ATCC 49619; type: cell-based; conditions: Streptococcus pneumoniae, ATCC49619; Table XIV A. Gram-positive bacteria
E. faecium ATCC 700221 = test: MIC, E. faecium ATCC 700221; type: cell-based; conditions: Enterococcus faecium, ATCC700221; Table XIV A. Gram-positive bacteria; read-out: E. faecium ATCC 700221 MIC
[1] = system: E. coli RNase P RNA, M1 RNA; test: Inhibition of bacterial RNase P activity, IC50 determination (cleavage of pATSerUG by M1 RNA); type: biochemical; conditions: NI: No inhibition
[2] = system: Escherichia coli (ATCC25922); test: MIC, broth microdilution (CLSI), Escherichia coli; conditions: Escherichia coli
K. pneumoniae ATCC 43816 = test: MIC, K. pneumoniae ATCC 43816; type: cell-based; conditions: Klebsiella pneumoniae, ATCC43816; Table XIV B. Gram-negative bacteria
[3] = system: Pseudomonas aeruginosa (ATCC27853); test: MIC, broth microdilution (CLSI), Pseudomonas aeruginosa; type: cell-based; conditions: ATCC27853, Table XIV B. Gram-negative bacteria, read-out: P. aeruginosa ATCC 27853 MIC
[4] = system: P. aeruginosa NTUH974 (MDR); test: MIC, P. aeruginosa NTUH974 (MDR); type: cell-based; conditions: Pseudomonas aeruginosa; Table XIV B. Gram-negative bacteria; read-out: P. aeruginosa NTUH974 (MDR) MIC
[5] = system: Staphylococcus aureus (ATCC25923); test: MIC, broth microdilution (CLSI), Staphylococcus aureus ATCC25923; conditions: Staphylococcus aureus, ATCC25923, read-out: S. aureus ATCC 25923 MIC
[6] = system: Staphylococcus aureus subsp. aureus (ATCC29213); test: MIC, broth microdilution (CLSI), Staphylococcus aureus ATCC29213; type: cell-based; conditions: Staphylococcus aureus, read-out: S. aureus ATCC 29213 MIC
[7] = system: S. aureus MRSA ATCC 33591; test: MIC, S. aureus MRSA ATCC 33591; type: cell-based; conditions: Staphylococcus aureus; Table XIV A. Gram-positive bacteria; read-out: S. aureus MRSA ATCC 33591 MIC
[8] = system: N. gonorrhoeae ATCC 700825; test: MIC, N. gonorrhoeae ATCC 700825; type: cell-based; conditions: Neisseria gonorrhoeae, ATCC700825; Table XIV B. Gram-negative bacteria
[9] = system: Enterococcus faecalis (ATCC29212); test: MIC, broth microdilution (CLSI), Enterococcus faecalis; type: cell-based; conditions: ATCC29212, Table XIV A. Gram-positive bacteria, read-out: E. faecalis ATCC 29212 MIC
A. baumannii ATCC 17978 = test: MIC, A. baumannii ATCC 17978; type: cell-based; conditions: Acinetobacter baumannii, ATCC17978; Table XIV B. Gram-negative bacteria
[10] = system: E. coli JW5503 (efflux defective); test: MIC, E. coli JW5503 (efflux defective); type: cell-based; conditions: Escherichia coli, read-out: E. coli JW5503 (efflux defective) MIC
[11] = ATCC25922, read-out: E. coli ATCC 25922 MIC, Table XIII
[12] = ATCC25922, read-out: E. coli ATCC 25922 MIC, Table XIV B. Gram-negative bacteria
[13] = ATCC29213, Table XIV A. Gram-positive bacteria

Structure (SMILES) | MIC (H. influenzae ATCC 49247) | MIC (S. pneumoniae ATCC 49619) | MIC (E. faecium ATCC 700221) | IC50 [1] | MIC [2, 11] | MIC [2, 12] | MIC (K. pneumoniae ATCC 43816) | MIC [3] | MIC [4] | MIC [5] | MIC [6, 13] | MIC [7] | MIC [8] | MIC [9] | MIC (A. baumannii ATCC 17978) | MIC [10] | MIC ([6]; ATCC29213, Table XIII)
Cc1cccc(CC(CC(=O)N[C@H]2CC[C@H](N)CC2)c2cn(CC3CCCCC3)c3ccccc23)c1.Cl (stereo partly drawn) [Compound 202, N-((1R,4R)-4-aminocyclohexyl)-3-(1-(cyclohexylmethyl)-1H-indol-3-yl)-4-(m-tolyl)butanamide hydrochloride salt] | 16 µg/mL | 16 µg/mL | 4 µg/mL | 10.7 µM | 33 µg/mL | 128 µg/mL | 64 µg/mL | 32 µg/mL | 32 µg/mL | 2 µg/mL | 16 µg/mL | 8 µg/mL | 4 µg/mL | 8 µg/mL | 32 µg/mL | 16 µg/mL | 
NC1CCC(NCCC(c2cccc(C(F)(F)F)c2)c2cn(CC3CCCCC3)c3ccccc23)CC1 [Compound 168, (1S,4S)-N1-(3-(1-(cyclohexylmethyl)-1H-indol-3-yl)-3-(3-(trifluoromethyl)phenyl)propyl)cyclohexane-1,4-diamine hydrochloride salt] | 4 µg/mL | 8 µg/mL | 2 µg/mL | 11 µM | 5 µg/mL | 4 µg/mL | 4 µg/mL | 16 µg/mL | 16 µg/mL | 2 µg/mL | 2 µg/mL | 4 µg/mL | 2 µg/mL | 2 µg/mL | 4 µg/mL | 4 µg/mL | 
Cc1cccc(C(CCNC2CCC(N)CC2)c2cn(CC34CC5CC(CC(C5)C3)C4)c3ccccc23)c1 [Compound 232, (1S,4S)-N1-(3-(1-(((1S,4S)-adamantan-1-yl)methyl)-1H-indol-3-yl)-3-(m-tolyl)propyl)cyclohexane-1,4-diamine hydrochloride salt] | 8 µg/mL | 8 µg/mL | 2 µg/mL | 8.3 µM | 5 µg/mL | 4 µg/mL | 8 µg/mL | 32 µg/mL | 32 µg/mL | 2 µg/mL | 4 µg/mL | 4 µg/mL | 4 µg/mL | 4 µg/mL | 8 µg/mL | 4 µg/mL | 
Cc1cccc(C(CCNC2CCNCC2)c2cn(CC3CCCCC3)c3ccc(Br)cc23)c1.Cl (stereo not shown) [Compound 163, N-(3-(5-bromo-1-(cyclohexylmethyl)-1H-indol-3-yl)-3-(m-tolyl)propyl)piperidin-4-amine hydrochloride salt] | 4 µg/mL | 8 µg/mL | 2 µg/mL | 8.5 µM | 2 µg/mL | 4 µg/mL | 4 µg/mL | 16 µg/mL | 16 µg/mL | 1 µg/mL | 4 µg/mL | 4 µg/mL | 2 µg/mL | 2 µg/mL | 4 µg/mL | 4 µg/mL | 2 µg/mL
N[C@H]1CC[C@H](NCCc2cn(CC3CCCCC3)c3ccc(-c4cccc(OC(F)(F)F)c4)cc23)CC1 [Compound 274, hydrochloride salt] | 4 µg/mL | 8 µg/mL | 2 µg/mL | 6.53 µM | 2 µg/mL | 4 µg/mL | 8 µg/mL | 8 µg/mL | 16 µg/mL | 2 µg/mL | 2 µg/mL | 2 µg/mL | 2 µg/mL | 2 µg/mL | 8 µg/mL | 4 µg/mL | 4 µg/mL
